Assay results from patent US10100077B2, “6-aryl-9-glycosylpurines and use thereof” (UNIVERZITA PALACKEHO V OLOMOUCI, priority 2014, dated 2018).

Tests used:
[1] = tested on: Vaccinia virus and Herpes simplex virus; conditions: cited from earlier work
BJ skin fibroblasts = assay: One-step growth curve; assay type: cell-based; conditions: 12.5 to 100 μM, counted on 7th and 14th day
Protocol: The experiments were performed with BJ skin fibroblasts in 24-well tissue culture plates. About 10,000 cells in culture medium comprising DMEM with 10% FBS were seeded into the individual wells. The cells were allowed to attach for 24 hourse. The test compound was added to final concentrations in a range from 12.5 to 100 μM. DMSO vehiculum was also tested. In order to control for variability, two plate columns (A, D) were treated with DMSO vehiculum. The culture medium with the test chemicals or DMSO vehiculum was changed twice a week. Following trypsinization, the numbers of cells in 4 wells for each concentration were counted using Coulter counter on 7th and 14th day.

[2] = Calcein AM cytotoxicity assay, K562; assay type: cell-based, human; conditions: human, K562 erythroleukemia cells
From the text: (§1) One of the parameters used as the base for cytotoxic analysis is metabolic activity of viable cells, such as microtiter assay, which uses the Calcein AM, is now widely used to quantitate cell proliferation and cytotoxicity. The quantity of reduced Calcein AM corresponds to the number of viable cells in culture. The cell lines of breast cancer (MCF-7), mousse fibroblasts (NIH3T3), human erythromleukemia (K562) were used for routine screening of cytotoxicity of the compounds. The cells were maintened in Nunc/Corning 80 cm^2 plastic bottles and grown in media for cell culture (DMEM containing 5 g/l of glucose, 2 mM of glutamin, 100 U/ml of penicilin, […] of streptomycin, 10% of fetal bovine serum and sodium hydrogencarbonate). Cell suspensions were diluted according to cell types and according to expected final cell density (10^4 of cells per well according to characteristics of cell growth), pipetted 80 μl of cell suspension on 96-well microtiter plates. Innoculates were stabilized by 24 hrs preincubation at 37° C. in CO2. Particular concentrations of tested compounds were added in time zero as 20 μl aliquotto wells of microtiter plates. Usually, the compounds were diluted into six concentrations in four-fold dilution series. In routine testing, the highest well concentration was 166.7 μM, of change dependent on the substance. All drug concentrations were examined in duplicates. The incubation of cells with tested derivatives lasted 72 hrs at 37° C., 100% humidity and in the atmosphere of CO2. At the end of the incubation period, the cells were tested and analysed according to the addition of Calcein AM (Molecular probes) solution and the incubation lasted for next 1 hour. Fluorescence (FD) was measured using Labsystem FIA reader Fluorskan Ascent (Microsystems). The survival of tumor cells (The tumor cell survival-TCS) was counted according to equation: […]=(FDwell with derivative/FDcontrol well)×100%. The value of GI50, that is equal to the concentration of compound at which 50% of tumour cells are terminated. To evaluate the antitumor activity was tested toxicity of new derivatives on panel of cell lines of different histogenetic and species origin (Tab. 7, G150 concentration given in μM). […] Effective derivatives killed tumor cells in concentrations close to 0.1 to 50. None of the newly prepared compounds only reached the value.

[3] = Calcein AM cytotoxicity assay, MCF-7; assay type: cell-based; conditions: human, MCF-7 breast cancer cells
From the text: as §1

[4] = tested on: skin fibroblasts BJ and keratinocytes HaCaT; assay: MTT in vitro cytotoxicity test for skin cells; assay type: cell-based; conditions: Homo sapiens; MTT, 72 hour treatment, BJ and HaCaT, maximal concentration 50 microM
Protocol: MTT assay is a standard test of toxicity based on photometric measurement of the ability of metabolically active cells to reduce MTT (3-(4,5-dimethylthiazol-2-yl)-2,5-diphenyltetrazolium bromide). Using the assay, the effects of 72 hour treatments with several concentrations of the compounds (sixfold dilution, maximal concentration=50 microM) on viability of skin fibroblasts BJ and keratinocytes HaCaT were evaluated. About 5,000 cells were seeded per well of a 96-well plate 24 hours before the treatment. DMSO vehiculum was used as a negative control. After 72 hour treatment, new medium with MTT (Sigma, M2128) was added to a final concentration of 0.5 mg/ml. After 3 hours, medium was removed and resulting formazan in the cells was dissolved in DMSO. The absorbance was measured at 570 nm (640 nm reference wavelength). The IC50 values were calculated from the dose-response curves. 6-Benzylaminopurine riboside and 6-furfurylaminopurine riboside were used as positive controls they were toxic in the MTT test.

[5] = Calcein AM cytotoxicity assay, NIH3T3; assay type: cell-based, mouse; conditions: mouse, NIH3T3 fibroblasts
From the text: as §1

[6] = tested on: skin fibroblasts BJ and keratinocytes HaCaT; assay: SRB in vitro toxicity test; assay type: cell-based; conditions: Homo sapiens, 72 hour treatment, maximal concentration 50 microM
Protocol: SRB (sulforhodamine B) assay is a standard toxicity test based on a photometric measurement of the cellular protein content after the staining with sulphorhodamine B. Using the assay, the effects of 72 hour treatments with several concentrations of the compounds (sixfold dilution, maximal concentration=50 microM) on viability of skin fibroblasts BJ and keratinocytes HaCaT were evaluated. About 5,000 cells were seeded per well of a 96-well plate 24 hours before the treatment. DMSO vehiculum was used as a negative non-toxic control. 6-benzylaminopurine riboside a 6-furfurylaminopurin riboside were used as positive toxic controls. After three days the medium was removed and the cells fixed with 10% (wt/vol) trichloroacetic acid. After the extensive washing in distilled water, 0.4% (wt/vol) solution of SRB in acetic acid was added and the fixed cells were stained for 30 minutes. The unbound stain was washed away by distilled water and the bound SRB was solubilized in unbuffered 10 mM Tris base. Absorbance was measured at 564 nm. IC50 values were calculated from dose-response curves.

OC[C@H]1O[C@@H](n2cnc3c(NCc4ccccc4)ncnc32)[C@@H](O)[C@@H]1O [6-benzylamino-9-β-D-arabinofuranosylpurine]
activity in killing Vaccinia virus and Herpes simplex virus [1]: No effect
influence on cell viability (cell numbers, growth curve) (BJ skin fibroblasts): did not have a negative influence on cell viability
GI50 at 72 h [2]: > 100 µM
GI50 at 72 h [3]: > 100 µM
IC50 [4]: > 50 µM
GI50 at 72 h [5]: > 100 µM
IC50 [6]: > 50 µM
